Among the data in ChEMBL document CHEMBL5137120, “Modified ent-Abietane Diterpenoids from the Leaves of Suregada zanzibariensis” (J Nat Prod, 2022) are Activity and IC50 values, retold here.

A short description of series [1]: Cytotoxicity against African green monkey GMK-AH-1 cell assessed as cell growth inhibition at >=100 uM incubated for 3 days by CellTiter96 Aqueous one reagent based assay. Type of series: toxicity. Conditions: chlorocebus aethiops, gmk-ah-1, 72 h, time 3 day.
Series [2] in a line: Cytotoxicity against human THP-1 cells assessed as cell growth inhibition incubated for 24 hrs by MTT assay. Type of series: toxicity, cell-based. Background: Tetrazolium dyes change colour on reduction, which living cells bring about.

A word on the IC50: it is the concentration that gives 50% inhibition.

Regarding `C=C1[C@@H](C)CC(=O)[C@@]2(C)[C@@H]3C[C@H]4OC(=O)C(C)=C4C=C3CC[C@]12O`, the Activity result in series [1] is listed as “Non-Toxic”. Take `CC(C)[C@H]1CC[C@@H]2[C@]1(C)CC[C@]1(C)[C@H]3CC=C4[C@@H](CC[C@H](O)C4(C)C)[C@]3(C)CC[C@@]21C`: in series [2], the half-maximal inhibitory concentration (IC50) at 24 h was determined as 1780 nM. Further, the Activity entry in series [1] is “Non-Toxic”.

As for `C=C1[C@@H](C)CC(=O)[C@@]2(C)[C@@H]3C[C@H]4OC(=O)C(C)=C4[C@H]4O[C@]43CC[C@]12O`, in series [1], the Activity result is “Non-Toxic”.
